Results reported in ChEMBL document CHEMBL3045163, “Synthesis of benzothiazole derivatives having acetamido and carbothioamido pharmacophore as anticonvulsant agents” (Med Chem Res, 2012).
Active and inactive are the calls of the source. No cut-off for these calls is given here.

Assays:
Mus musculus [1] = experiment: Antidepressant activity in Mus musculus (mouse) assessed as immobility time at 100 mg/kg, ip administered 60 min before test measured during last 4 min of 6 min testing period; assay type: functional; settings: route intraperitoneal
[2] = Octanol-phosphate buffer partition coefficient, log P of the compound; assay type: physicochemical
Mus musculus [3] = experiment: Neurotoxicity in Mus musculus (mouse) assessed as motor impairment at 300 mg/kg, ip after 0.5 hr by rotorod test; assay type: toxicity, organism-based; set-up: dose 300 mg/kg, route intraperitoneal; settings: in vivo
Mus musculus [4] = experiment: Neurotoxicity in ip dosed Mus musculus (mouse) assessed as motor impairment after 4 hr by rotorod test; assay type: toxicity, organism-based; settings: in vivo
Mus musculus [5] = experiment: Anticonvulsant activity in ip dosed Mus musculus (mouse) assessed as protection against subcutaneous pentylenetetrazole-induced seizure after 4 hr; assay type: functional; settings: read-out: MED
Mus musculus [6] = experiment: Anticonvulsant activity in ip dosed Mus musculus (mouse) assessed as protection against subcutaneous pentylenetetrazole-induced seizure after 0.5 hr; assay type: functional; settings: read-out: MED
Mus musculus [7] = experiment: Anticonvulsant activity in ip dosed Mus musculus (mouse) assessed as protection against maximal electroshock-induced seizure after 4 hr; assay type: functional; settings: read-out: MED
Mus musculus [8] = experiment: Anticonvulsant activity in ip dosed Mus musculus (mouse) assessed as protection against maximal electroshock-induced seizure after 0.5 hr; assay type: functional; settings: read-out: MED
Mus musculus [9] = experiment: Neurotoxicity in ip dosed Mus musculus (mouse) assessed as motor impairment after 0.5 hr by rotorod test; assay type: toxicity, organism-based; settings: in vivo
Mus musculus [10] = experiment: Anticonvulsant activity in Mus musculus (mouse) assessed as protection against subcutaneous pentylenetetrazole-induced seizure at 300 mg/kg, ip after 4 hr; assay type: functional, organism-based; set-up: dose 300 mg/kg
Mus musculus [11] = experiment: Anticonvulsant activity in Mus musculus (mouse) assessed as protection against subcutaneous pentylenetetrazole-induced seizure at 300 mg/kg, ip after 0.5 hr; assay type: functional, organism-based; set-up: dose 300 mg/kg
Mus musculus [12] = experiment: Anticonvulsant activity in Mus musculus (mouse) assessed as protection against maximal electroshock-induced seizure at 300 mg/kg, ip after 0.5 hr; assay type: functional, organism-based; set-up: dose 300 mg/kg
Mus musculus [13] = experiment: Neurotoxicity in Mus musculus (mouse) assessed as motor impairment at 300 mg/kg, ip after 4 hr by rotorod test; assay type: toxicity, organism-based; set-up: dose 300 mg/kg, route intraperitoneal; settings: in vivo
Mus musculus [14] = experiment: Anticonvulsant activity in Mus musculus (mouse) assessed as protection against maximal electroshock-induced seizure at 300 mg/kg, ip after 4 hr; assay type: functional, organism-based; set-up: dose 300 mg/kg

Compound	Time (Mus musculus [1])	logP [2]	Activity (Mus musculus [3])	MED (Mus musculus [4])	minimal effective dose (Mus musculus [5])	minimal effective dose (Mus musculus [6])	minimal effective dose (Mus musculus [7])	minimal effective dose (Mus musculus [8])	MED (Mus musculus [9])	Activity (Mus musculus [10])	Activity (Mus musculus [11])	Activity (Mus musculus [12])	Activity (Mus musculus [13])	Activity (Mus musculus [14])
CC(C)(C)NCC(=O)Nc1nc2ccc(Cl)cc2s1	129 s	3.02	Non-toxic	300 mg/kg	300 mg/kg	100 mg/kg	100 mg/kg	30 mg/kg	–	–	–	–	–	–
COc1ccc(/C=N/NC(=S)Nc2nc3ccc(Cl)cc3s2)cc1	181 s	5.16	–	300 mg/kg	–	–	300 mg/kg	–	100 mg/kg	inactive	inactive	inactive	–	–
O=C(Cn1ccnc1)Nc1nc2ccc(Cl)cc2s1	137 s	2.14	Non-toxic	–	100 mg/kg	100 mg/kg	30 mg/kg	30 mg/kg	–	–	–	–	Non-toxic	–
O=C(CN1CCOCC1)Nc1nc2ccc(Cl)cc2s1	140 s	2.32	Non-toxic	–	100 mg/kg	100 mg/kg	30 mg/kg	30 mg/kg	–	–	–	–	Non-toxic	–
O=[N+]([O-])c1ccc(/C=N/NC(=S)Nc2nc3ccc(Cl)cc3s2)cc1	157 s	4.68	–	300 mg/kg	300 mg/kg	300 mg/kg	–	100 mg/kg	300 mg/kg	–	–	–	–	inactive
S=C(N/N=C/c1ccc(Cl)cc1)Nc1nc2ccc(Cl)cc2s1	191 s	5.52	–	–	–	–	–	300 mg/kg	300 mg/kg	inactive	inactive	–	Non-toxic	inactive
O=C(CNc1ccc(F)cc1)Nc1nc2ccc(Cl)cc2s1	169 s	3.88	Non-toxic	–	300 mg/kg	100 mg/kg	100 mg/kg	100 mg/kg	–	–	–	–	Non-toxic	–
O=C(CN(c1ccccc1)c1ccccc1)Nc1nc2ccc(Cl)cc2s1	196 s	6.12	–	–	–	–	–	300 mg/kg	300 mg/kg	inactive	inactive	–	Non-toxic	inactive
O=C(Cn1ccc2ccccc21)Nc1nc2ccc(Cl)cc2s1	152 s	4.62	–	300 mg/kg	300 mg/kg	–	300 mg/kg	100 mg/kg	100 mg/kg	–	inactive	–	–	–
S=C(N/N=C/c1ccccc1Cl)Nc1nc2ccc(Cl)cc2s1	177 s	5.46	Non-toxic	100 mg/kg	–	–	–	300 mg/kg	–	inactive	inactive	–	–	inactive
O=C(CNc1ccc(Cl)cc1)Nc1nc2ccc(Cl)cc2s1	161 s	4.24	Non-toxic	100 mg/kg	–	–	–	100 mg/kg	–	inactive	inactive	–	–	inactive
O=C(CN1CCCCC1)Nc1nc2ccc(Cl)cc2s1	145 s	3.16	Non-toxic	300 mg/kg	–	100 mg/kg	100 mg/kg	30 mg/kg	–	inactive	–	–	–	–
NC(=O)N1c2ccccc2C=Cc2ccccc21 [CARBAMAZEPINE]	179 s	–	–	300 mg/kg	100 mg/kg	100 mg/kg	100 mg/kg	30 mg/kg	100 mg/kg	–	–	–	–	–
O=C1NC(=O)C(c2ccccc2)(c2ccccc2)N1 [PHENYTOIN]	–	–	–	100 mg/kg	–	–	30 mg/kg	30 mg/kg	100 mg/kg	inactive	inactive	–	–	–
Oc1ccc(/C=N/NC(=S)Nc2nc3ccc(Cl)cc3s2)cc1	169 s	4.78	Non-toxic	100 mg/kg	–	100 mg/kg	–	100 mg/kg	–	inactive	–	–	–	inactive
S=C(N/N=C/c1ccccc1)Nc1nc2ccc(Cl)cc2s1	162 s	4.86	–	300 mg/kg	–	–	300 mg/kg	–	300 mg/kg	inactive	inactive	inactive	–	–
CN(C)c1ccc(/C=N/NC(=S)Nc2nc3ccc(Cl)cc3s2)cc1	172 s	5.24	–	100 mg/kg	–	–	–	–	100 mg/kg	inactive	inactive	inactive	–	inactive
Fc1ccc(/C=N/NC(=S)Nc2nc3ccc(Cl)cc3s2)cc1	188 s	5.22	–	100 mg/kg	100 mg/kg	100 mg/kg	30 mg/kg	30 mg/kg	100 mg/kg	–	–	–	–	–
